Experimental data as given in US9814697B2, “Composition for nonalcoholic fatty liver disease (NAFLD)” (Cadila Healthcare Limited, priority 2013, dated 2017).

Key:
[1] = test system: subjects with biopsy proven NASH; assay: Prospective, multi-centric, open-label, single arm study in Non-alcoholic steatohepatitis: efficacy parameters; assay type: in vivo, human
Protocol: (§1) Title of the Study—“A prospective, multi-centric, open-label, single arm study to evaluate the safety and efficacy of 4 mg of magnesium salt of compound of formula (I) wherein R is -SMe in a pharmaceutical composition as described above in Non-alcoholic steatohepatitis.”
(§2) To evaluate the safety and efficacy of 4 mg of magnesium salt of compound of formula (I) wherein R is -SMe in Non-alcoholic steatohepatitis (NASH).
(§3) • Primary Efficacy (Time Frame 6 and 12 Weeks): • 1. Change in alanine aminotransferase (ALT) from baseline • Secondary Efficacy (Time Frame 6 and 12 Weeks): • Sustained reduction in ALT level. • C-peptide test for homeostasis model assessment (HOMA) beta and HOMA IR • Triglyceride (TG) Criteria for Safety: • 1. General and Systemic Clinical Examination: Cardiovascular system (CVS), respiratory system (RS), gastro-intestinal system (GIS), central nervous system (CNS) etc. • 2. Laboratory Investigations: Complete blood count (CBC), aspartate aminotransferase(AST), ALT, alkaline phosphatase (ALP), serum bilirubin, γ-glutamyl transpeptidase (GGT), Serum proteins, blood urea nitrogen (BUN), Serum creatinine, creatinine phosphokinase (CPK), fasting plasma glucose (FPG). • 3. Frequency and severity of adverse events (AEs) for all subjects enrolled were recorded. All AEs, were classified using • causality • severity • seriousness Methodology:
(§4) It is an interventional, single arm, safety and efficacy study to explore effect of magnesium salt of compound of formula (I) wherein R is -SMe suitably formulated as described above, on NASH.
Subjects was diagnosed by biopsy as suffering from NASH in last one year and willing to participate in study were invited for screening programme for inclusion in the study.
(§5) All subjects were given suitable formulation of magnesium salt of compound of formula (I) wherein R is -SMe 4 mg for 12 weeks. Lifestyle modification was continued as before the study. Patient was monitored for safety and efficacy of magnesium salt of compound of formula (I) wherein R is -SMe.
(§6) After Clinical evaluations, all baseline safety and efficacy parameters were recorded as per Table (I) given below. All laboratory investigations were carried out after overnight fasting.
(§7) Safety and efficacy parameters were assessed as per Table (I) given below.
Subjects were clinically examined and safety and efficacy parameters were assessed as per Table (I) given below. […]

[2] = test system: subjects with biopsy proven NASH; assay: Prospective, multi-centric, open-label, single arm study in Non-alcoholic steatohepatitis: safety and tolerability; assay type: in vivo, human
Protocol: as §1, §2, §3, §4, §5, §6
Subjects were clinically examined and given the study medications for four weeks and also safety parameters were assessed as per Table (I)given below.
as §7
Subjects were clinically examined and safety and efficacy parameters were assessed as per Table (I) given below.
If further investigations are required in case of any AE, investigator will be advised to assess the AE and take necessary action, if required. Subjects will be advised to contact the investigator for any complaints within next two weeks. […]

[3] = 4 mg, Safety Population, at Week 3 and at Week 4 (so in the source), FIG. 2
[4] = 4 mg, at 6 and 12 weeks, PP analysis, FIG. 3
[5] = 4 mg, during the study, mild, none considered clinically significant by the investigator

SMILES: CCO[C@@H](Cc1ccc(OCCn2c(C)ccc2-c2ccc(SC)cc2)cc1)C(=O)[O-].CCO[C@@H](Cc1ccc(OCCn2c(C)ccc2-c2ccc(SC)cc2)cc1)C(=O)[O-].[Mg+2]
- Change in ALT levels from baseline ([1]; 4 mg for 12 weeks, NASH patients, PP population, visit 3 (week 6) and visit 4 (week 12), FIG. 1): statistically significant reduction
- Patients with sustained reduction in ALT levels ([1]; 4 mg, PP population, visit 3 (week 6)): 63.16 % of patients
- Patients with sustained reduction in ALT levels ([1]; 4 mg, PP population, visit 4 (week 12)): 78.95 % of patients
- Change in Aspartate Transaminase [1, 3]: statistical significant decrease
- Change in alkaline phosphatase [1, 3]: statistical significant decrease
- Change in gamma-glutamyl transpeptidase [1, 3]: statistical significant decrease
- Change in C peptide levels [1, 4]: non-significant change
- Change in HOMA-Beta cell function [1, 4]: non-statistically significant reduction
- Change in HOMA-Insulin Resistance [1, 4]: non-statistically significant reduction
- Decrease in triglyceride as compared to baseline ([1]; 4 mg, patients with baseline TG<150 mg/dl, week 12, PP population, FIG. 4): not statistically significant
- Decrease in serum triglycerides as compared to baseline ([1]; 4 mg, patients with baseline TG≧150 mg/dl, week 6 and 12, PP population, FIG. 4): not statistically significant
- Overall safety and tolerability ([2]; 4 mg for 12 weeks, NASH patients): safe and well tolerated
- Changes from baseline in various laboratory parameters ([2]; 4 mg treatment arm): no persistent changes from baseline
- Deaths or SAEs reported ([2]; 4 mg treatment arm): no deaths or SAEs
- Overall incidence of AEs ([2]; 4 mg treatment arm): Nil
- Change in weight compared to baseline ([2]; 4 mg, NASH patients, visit 2, 3 and 4): no significant change in weight
- Events of raised CPK value [2, 5]: five
- Events of raised creatinine [2, 5]: Few events
